pIC50: −log10 of the molar value. Counter-ions that a name gives are not always drawn.
target: T1, P2X7 (Homo sapiens, UniProt Q99572); experiment: YO-PRO-1 dye uptake assay in U373 cells stably expressing P2X7; format: cell-based; set-up: The complete open reading frame of human P2X7 was amplified from Incyte clone 148057; expressed in transfected cells; settings: IC50 (nM), dye uptake through P2X7, U373 cells, 300 μM BzATP, 5 μM YO-PRO-1, test compounds 30 nM to 3 μM
T1 sequence (Q99572 1-595): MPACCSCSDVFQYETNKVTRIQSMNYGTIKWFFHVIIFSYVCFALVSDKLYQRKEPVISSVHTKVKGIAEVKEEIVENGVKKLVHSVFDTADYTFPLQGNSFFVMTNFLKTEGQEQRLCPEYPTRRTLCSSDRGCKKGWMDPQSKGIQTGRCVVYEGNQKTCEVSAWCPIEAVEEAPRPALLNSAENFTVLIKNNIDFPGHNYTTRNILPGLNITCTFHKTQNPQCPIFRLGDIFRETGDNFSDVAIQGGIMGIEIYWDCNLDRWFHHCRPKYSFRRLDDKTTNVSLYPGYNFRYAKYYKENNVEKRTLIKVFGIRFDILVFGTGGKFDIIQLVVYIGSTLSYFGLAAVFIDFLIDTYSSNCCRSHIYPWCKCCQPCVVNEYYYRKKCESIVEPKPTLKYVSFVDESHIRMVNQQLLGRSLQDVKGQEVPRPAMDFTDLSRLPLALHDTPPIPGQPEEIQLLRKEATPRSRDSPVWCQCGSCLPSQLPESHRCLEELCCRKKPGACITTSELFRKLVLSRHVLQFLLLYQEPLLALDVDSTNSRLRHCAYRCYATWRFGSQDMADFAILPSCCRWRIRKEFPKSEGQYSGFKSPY
Protocol: Following a 24-hr exposure to DNA, cells were trypsinized and re-seeded at low density in the presence of […] G418. After incubation for 2 weeks, isolated clones were selected with cloning cylinders and replated in […] G418. Cell clones were then expanded. Clones were screened for P2X7 by applying ATP and recording the resultant current using patch clamp electrophysiology.
U373 cells stably expressing P2X7 were used to screen drugs via a dye uptake assay. Cells were plated overnight on collagen coated 96-well plates at a density of 35,000 cells per well. The following day, culture media was replaced with Mg^++ and Ca^++-free Hank's balanced salt solution and various concentrations of test compounds ranging from 30 nM to 3 μM. Cells were then allowed to incubate with test compounds at 37° C. for 20 minutes. Following this incubation period YO-PRO-1 dye (Molecular Probes, Eugene, Oreg., final concentration 5 μM) and 2′-& 3′-O-(4-Benzolybenzoyl)-Adenosine 5′-triphosphate (Sigma Chemical, St Louis, Mo., final concentration 300 μM) were added to the cells sequentially. Cells were then incubated at 37° C. for 1.5 hours. […] Fluorescence in the presence of test substances was compared to that in the absence of test substances (control).

Structure (SMILES)	IC50 [nM]
Fc1cccc(CC2=N[C@H](c3ccccc3)[C@H](c3ccccc3)N2)c1 [cis-4,5-diphenyl-2-(3-fluorobenzyl)-4,5-dihydro-1H-imidazole]	80

same assay, conditions: dye uptake through P2X7, U373 cells, 300 μM BzATP, 5 μM YO-PRO-1, test compounds 30 nM to 3 μM; read-out: IC50

pIC50	Structure (SMILES)
6.61	Fc1ccc(CNC2=N[C@@H](c3cccc(Cl)c3)[C@@H](c3cccc(Cl)c3)N2)cc1F [[cis-4,5-bis-(3-Chlorophenyl)-4,5-dihydro-1H-imidazol-2-yl]-(3,4-difluorobenzyl)-amine hydrochloride]
6.27	c1ccc(CCCC2=N[C@H](c3ccccc3)[C@H](c3ccccc3)N2)cc1 [2-[3-phenyl-propyl]-cis-4,5-diphenyl-4,5-dihydro-1H-imidazole trifluoroacetate]
6.50	Fc1cccc(OCC2=N[C@@H](c3cccc(F)c3)[C@@H](c3cccc(F)c3)N2)c1 [2-[(3-Fluorophenoxy)methyl]-cis-4,5-bis-(3-fluorophenyl)-4,5-dihydro-1H-imidazole]
6.31	C[C@@]1(c2ccccc2)N=C(COC2CCOc3ccccc32)N[C@@H]1c1ccccc1 (stereo partly shown)
6.03	Clc1ccccc1[C@H]1NC(NCc2ccccc2)=N[C@H]1c1ccccc1Cl [[cis-4,5-bis-(2-Chlorophenyl)-4,5-dihydro-1H-imidazol-2-yl]-benzylamine hydrochloride]
7.11	Cc1ccccc1[C@H]1NC(NCc2ccc(F)c(F)c2)=N[C@H]1c1ccccc1C [[cis-4,5-bis-(2-Methylphenyl)-4,5-dihydro-1H-imidazol-2-yl]-(3,4-difluorobenzyl)-amine hydrochloride]
6.24	Fc1ccccc1CC1=N[C@H](c2ccccc2)[C@H](c2ccccc2)N1 [cis-4,5-diphenyl-2-(2-fluorobenzyl)-4,5-dihydro-1H-imidazole]
6.48	Fc1cccc([C@H]2NC(Cc3cccc(Cl)c3)=N[C@H]2c2cccc(F)c2)c1 [2-(3-Chlorobenzyl)-cis-4,5-bis-(3-fluorophenyl)-4,5-dihydro-1H-imidazole trifluoroacetate]
7.66	C[C@@]1(c2ccccc2)N=C(CCc2ccccc2)N[C@@H]1c1ccccc1 (relative stereo) [cis-4,5-diphenyl-4-methyl-2-(2-phenylethyl)-4,5-dihydro-1H-imidazole]
6.61	Fc1ccc(CNC2=N[C@@H](c3ccccc3)[C@@H](c3ccccc3)N2)c(Cl)c1 [cis-4,5-diphenyl-2-(2-chloro-4-fluorobenzyl)amino-4,5-dihydro-1H-imidazole]
6.23	Fc1cccc(CNC2=N[C@@H](c3ccccc3Cl)[C@@H](c3ccccc3Cl)N2)c1 [[cis-4,5-bis-(2-Chlorophenyl)-4,5-dihydro-1H-imidazol-2-yl]-(3-fluorobenzyl)amine hydrochloride]
6.08	COc1ccccc1CCC1=N[C@@H](c2ccccc2)[C@@H](c2ccccc2)N1 [2-[2-(2-Methoxyphenyl)ethyl]-cis-4,5-diphenyl-4,5-dihydro-1H-imidazole trifluoroacetate]
7.51	Fc1cccc(CCC2=N[C@@H](c3ccccc3)[C@@H](c3ccccc3)N2)c1 [2-[2-(3-Fluorophenyl)ethyl]-cis-4,5-diphenyl-4,5-dihydro-1H-imidazole trifluoroacetate]
7.47	Clc1cccc(CC2=N[C@@H](c3ccccc3)[C@@H](c3ccccc3)N2)c1 [cis-4,5-diphenyl-2-(3-chlorobenzyl)-4,5-dihydro-1H-imidazole]
7.19	Fc1ccc(CNC2=N[C@@H](c3ccccc3)[C@@H](c3ccccc3)N2)cc1F [cis-4,5-diphenyl-2-[(3,4-difluorobenzyl)amino]-4,5-dihydro-1H-imidazole]
6.17	C[C@@]1(c2ccccc2)N=C(COCC2CC2)N[C@@H]1c1ccccc1 (relative stereo) [2-[[(Cyclopropyl)methoxy]methyl]-cis-4,5-diphenyl-4-methyl-4,5-dihydro-1H-imidazole trifluoroacetate]
6.92	Cc1cccc([C@H]2NC(NCc3cccc(F)c3)=N[C@H]2c2cccc(C)c2)c1 [[cis-4,5-bis-(3-Methylphenyl)-4,5-dihydro-1H-imidazol-2-yl]-(3-fluorobenzyl)amine hydrochloride]

Structure (SMILES)	pIC50
Fc1cccc(CC2=N[C@H](c3ccccc3)[C@H](c3ccccc3)N2)c1 [cis-4,5-diphenyl-2-(3-fluorobenzyl)-4,5-dihydro-1H-imidazole]	7.08

— patent US7741493B2, “Heterocyclic compounds as P2X7 ion channel blockers” (Aventis Pharmaceuticals Inc., priority 2003, dated 2010)
